Earlier results on 1 compound are cited in patent publication US20150336981A1, “MODIFIED POLYPHENOLS AND MODIFIED POLYPHENOL COMPOSITIONS” (CELLAROUGE PTY LTD, priority 2012, published 2015).

This series has as its system high-carbohydrate, high fat diet-fed rats. The following applies: HEA: high-carbohydrate, high fat diet + ellagic acid 0.8 g/kg food.

Turning to `O=c1oc2c(O)c(O)cc3c(=O)oc4c(O)c(O)cc1c4c23` [ellagic acid], the AUC was 696 ± 11 mmol·min/L, the Abdominal circumference is 21.3 ± 0.3 cm, the Abdominal fat pads is 520 ± 29 mg/mm tibial length and the BMI is on record as 0.72 ± 0.02 g/cm^2. In addition, the Basal blood glucose is reported as 3.9 ± 0.2 mmol/L, the Feed efficiency was 0.31 ± 0.02 g/kJ, the Final body weight is 473 ± 2 g and the Food intake is on record as 21.0 ± 0.4 g. Also, the “Plasma C-reactive protein” value is 2.40 ± 0.07 µmol/L, the “Plasma non-esterified fatty acids” value is reported as 1.7 ± 0.2 mmol/L, the Plasma total cholesterol is 1.5 ± 0.1 mmol/L and the Plasma triglycerides is on record as 0.5 ± 0.1 mmol/L. Also, the Plasma urea is on record as 6.2 ± 0.4 mmol/L, the Plasma uric acid was 44.3 ± 3.8 µmol/L and the Water intake is 19.0 ± 0.4 mL.
